From article PMC3694003 (PLoS ONE, 2013) come the findings set out here.

Where two headings read alike, the source gives them in different places. Bridge positions count the residues as written; N and C are the ends. Ends that are not written are not given here. Peptide text beside a SMILES is read from it.

In data set [1] the test system is lymphocytes and purified T-cells. The experiment in a line: Cytotoxicity in proliferation experiments. The note with it: analyzed concentration range up to 14 µM. It is filed as cell-based, human. As to the method:
(§1) After cultivation, the cells were assessed in biological tests as described. Alternatively for IL-2 supplementation assays, lymphocytes or purified T-cells were equilibrated for 2 h at 37°C.

Data set [2] relates to Ca2+-release in human primary T-cells. The experiment in a line: Ca2+-release assay in T-cells. Type of data set: cell-based. To be noted: for inhibition or delay of PMA/ionomycin-triggered Ca2+-release after pretreatment: 4 µM overnight (16 h), Fluo-4/Fura Red flow cytometry; for direct change in Ca2+-signaling: 4 µM, Fura-2 loaded T-cells, fluorometer. As for the experimental part:
Human primary T-cells (1 x 10^6/mL) were loaded with 1 µM Fura-2 and 0.02% Puronic F-127 for 30 min at 37°C. Cells were centrifuged for 5 min at 1200 rpm and resuspended in RPMI 1640 media supplemented with 10% fetal calf serum, penicillin (100 U/mL) and streptomycin (100 U/mL). 100 µL of cell suspension were transferred into a black 96-well plate with a clear flat-bottom. Briefly before analysis the fluorometer Synergy H4 (BioTek, Winooski, VT) was equilibrated to 37°C. The fluorescence time course was measured with: extinction at 340 and 380 nm, respectively, and emission at 510 nm in 30 sec intervals, while continuously shaking. […] To receive maximum Ca^2+-release, cells were stimulated with PMA (50 ng/mL) and ionomycin (500 ng/mL). For lowest Ca^2+-levels, cells remained untreated. […] (4 µM each) or left untreated over night at 37°C in a 24-well flat-bottom plate. Cells were stained for 15 min with Fluo-4 (2 µM) and Fura Red (4 µM), centrifuged at 1000 rpm for 5 min and resuspended in medium. Ca^2+-release was measured by time-dependent flow cytometry using BD FACSCalibur as described previously. Fluo-4 and Fura Red signals were detected using flow cytometric analysis. After equilibrating basal calcium levels for 60 sec, PMA (50 ng/mL) and ionomycin (500 ng/mL) were added to the preincubated T-cells. Fluorescence ratio was calculated using WEASEL 2.3 software.

The subject of data set [3] is IL-2 release of activated lymphocytes. It is filed as cell-based, human. The note with it: 4 µM; 24 h then PMA/ionomycin 6 h; mean ± SD. As to the method:
as §1
(§2) Cells were treated for 24 or 36 h, respectively and were restimulated with PMA (50 ng/mL) and ionomycin (500 ng/mL) for additional 6 h. Supernatants were harvested by centrifugation and were stored at -20°C. The amount of cytokines was measured and quantified using the FlowCytomix^TM technique according to manufacturer’s instructions (eBioscience) or alternatively intracellular cytokine production was determined. For this purpose the cells were fixed and permeabilized using 4% paraformaldehyde (Sigma-Aldrich) and Perm/Wash solution (Becton Dickinson), followed by staining with PE-conjugated anti-human IFN-γ mAb or anti-human TNF-α mAb (both from eBioscience), respectively. For CD107a degranulation assay, cells were restimulated with PMA (10 or 50 ng/mL, respectively) und ionomycin (100 or 500 ng/mL, respectively) and to each well containing 200 µL of cell suspension, 5 µL (~0.25 µg) PE-conjugated anti-CD107a mAb (eBioscience) were added. After incubation at 37°C for 1 h, 2 µL of 1/10 diluted GolgiStop (Becton Dickinson) was added per well and the plates were incubated for another 2.5 h. Samples were analyzed with a BD FACSCalibur flow cytometer using BD CellQuest Pro Software.

The test system of data set [4] is IL-2 surface receptor CD25. It is filed as cell-based, human. To be noted: 4 µM; for IL-2 surface receptor CD25 expression compared to stimulated lymphocytes (ctrl, 100%): mean ± SD. As to the method:
as §1
Cultured cells were washed with PBS and stained with PE-labeled anti-human CD25 mAbs (eBioscience) for 15 min at 4°C. Afterwards, the cells were washed twice with PBS and resuspended and transferred into FACS vials and expression of the IL-2 surface receptor α-chain CD25 was measured by FACS analysis using a FACSCalibur instrument.

Data set [5] has as its system il-2 mRNA. The experiment in a line: il-2 gene expression, quantitative RT-PCR. Type of data set: cell-based, human. The note with it: 4 µM; lymphocytes; normalized to 18s rRNA. As to the method: Total RNA was extracted from controls or treated cells (4 x 10^6) and frozen at -80°C until further use. RNA purification was performed according to the manufacturer’s instructions for the RNeasy mini and RNAse-Free DNAse digestion kits (Qiagen, Hamburg, Germany). The quantity and purity of extracted RNA was measured by nanodrop spectrophotometry (Peqlab, Erlangen, Gemany) and purified RNA was reverse transcribed using the RT^2 First Strand Kit (Qiagen). RT-PCR reactions were carried out on a MyiQ kit (BioRad, Munich, Germany) in a final volume of 25 µL using RT² qPCR Primer Assay (for il-2) and SYBR® Green qPCR master mix (both from Qiagen). Each determination was performed in duplicate and the housekeeping gene 18s rRNA was used as an internal control. The real-time thermal cycler program comprised an initial denaturation step at 95 °C for 10 min followed by a two-step program with 40 cycles (95°C, 15 sec; and 60°C, 60 sec). The relative gene expression of il-2 has been determined by comparative cycle threshold analysis and the data were normalized to the internal housekeeping gene 18s rRNA and the relative mRNA level in the untreated group (untreated PHA-L-activated).

For data set [6], the system named is TNF-α. Description: TNF-α production of activated lymphocytes. Type of data set: cell-based, human. To be noted: 4 µM, mean ± SD; for TNF-α production compared to control: 36 h post stimulation, intracellular cytokine flow cytometry. As for the experimental part: as §2
The test system of data set [7] is primary activated human lymphocytes (PBMCs). It is filed as cell-based. The note with it: for immunosuppressive activity: mutation in hydrophilic 'bioactive face', Table 1, Figure 2. As to the method:
(§3) Purified T-cells were obtained by CD3^+ positive selection using magnetic cell separation method according to manufacturer’s instructions (StemCell Technologies, Grenoble, France). Cells were washed twice with medium and cell viability as well as concentration was determined using the trypan blue exclusion test.
as §1

The test system of data set [8] is purified human T-cells (CD3+). Type of data set: cell-based. To be noted: cyclotides 1.8-14 µM. As to the method:
as §3, §1

Data set [9] relates to degranulation marker LAMP-1 (CD107a). Description: CD107a degranulation assay. Type of data set: cell-based, human. To be noted: 36 h, 4 µM, mean ± SD, three experiments. As for the experimental part: as §2
Data set [10] deals with primary human lymphocytes. Type of data set: cell-based. To be noted: for proliferation compared to control, pretreated and washed cells with exogenous IL-2 / proliferation compared to control cells, pretreated and washed cells without exogenous IL-2: 4 µM pretreatment, PHA-L 10 µg/mL, day three, mean ± SD, three experiments; for proliferation compared to control, pretreated and washed cells with exogenous IL-2: recombinant human IL-2 added. As for the experimental part:
as §1
10 µg/milliliter PHA-L for 1 h. This was followed by washing off the substances and stimuli with PBS and resuspending the cells in medium for further assays as described.

The test system of data set [11] is IL-2 release of purified T-cells. Description: IL-2 secretion of purified T-cells, ELISA-based. It is filed as cell-based, human. The note with it: 4 µM; 24 h then PMA/ionomycin 6 h; relative to [V10K] kalata B1. As to the method: as §1, §2
Data set [12] has as its system IFN-γ. Description: IFN-γ production of activated lymphocytes. Type of data set: cell-based, human. The note with it: 4 µM, mean ± SD; for IFN-γ concentration compared to control: 24 h post stimulation, supernatant, ELISA-based, three experiments. As for the experimental part:
as §2

As to `CC(C)C[C@@H]1NC(=O)CNC(=O)[C@H](CC(N)=O)NC(=O)[C@H](CCCNC(=N)N)NC(=O)[C@H]([C@@H](C)O)NC(=O)[C@@H]2CSSC[C@@H]3NC(=O)[C@H]([C@@H](C)O)NC(=O)CNC(=O)CNC(=O)[C@H](C(C)C)NC(=O)[C@@H]4CSSC[C@H](NC(=O)[C@H](CCCCN)NC(=O)[C@H](CSSC[C@H](NC(=O)[C@H](C(C)C)NC(=O)[C@@H]5CCCN5C1=O)C(=O)NCC(=O)N[C@@H](CCC(=O)O)C(=O)N[C@@H]([C@@H](C)O)C(=O)N4)NC(=O)CNC(=O)[C@@H]1CCCN1C(=O)[C@H]([C@@H](C)O)NC(=O)[C@H](CC(N)=O)NC3=O)C(=O)N[C@@H](CO)C(=O)N[C@@H](Cc1c[nH]c3ccccc13)C(=O)N1CCC[C@H]1C(=O)N[C@@H](C(C)C)C(=O)N2` [[T20K]] (cyclo(CGETCVGGTCNTPGCKCSWPVCTRNGLPV); disulfide 1-15, 5-17, 10-22 (inferred); ring closure inferred), the cytotoxicity result in data set [1] is “no signs of cytotoxicity”. For the same compound, in [2], the “inhibition or delay of PMA/ionomycin-triggered Ca2+-release after pretreatment” value is given as “Neither cyclotides nor CsA induced any inhibition or a delay” and the “direct change in Ca2+-signaling” value is “did not induce any change”. Besides, the “IL-2 release of T-lymphocytes compared to control cells” value in [3] is 24% ± 19. For the same compound, the “IL-2 surface receptor CD25 expression compared to stimulated lymphocytes (ctrl, 100%)” value in [4] (24 h) is 79% ± 10. Further, the “IL-2 surface receptor CD25 expression compared to stimulated lymphocytes (ctrl, 100%)” value in data set [4] (36 h) is 46% ± 18. In [5], the “level of il-2 mRNA compared to control” value is “clearly decreased”. Besides, the “TNF-α expression compared to control” value in [6] (24 h post stimulation, supernatant, ELISA-based) is recorded as 23% ± 11. Besides, the “TNF-α production compared to control” value in [6] is recorded as “did not affect”. Also, the IC50 in [7] (CFSE flow cytometry, day three post stimulation, cyclotides 1.8-14 µM, non-linear regression (fixed slope), mean ± SD, a: n=7, b: n=4, c: n=3, read-out: IC50 (µM) ± SD, inhibition of lymphocyte (PBMC) proliferation) was 1.9 ± 0.6 µM. Moreover, the IC50 in data set [8] (CFSE flow cytometry, day 3, non-linear regression (fixed slope), mean ± SD, c: n=3, d: n=2, read-out: IC50 (µM) ± SD, inhibition of purified T-cell proliferation) came out at 2.7 ± 0.6 µM. Moreover, the “cells containing degranulation marker LAMP-1 as compared to control” value in data set [9] was 49% ± 17. Besides, in data set [10], the “proliferation compared to control, pretreated and washed cells with exogenous IL-2” value was 91% ± 1.4; the “proliferation compared to control cells, pretreated and washed cells without exogenous IL-2” value is listed as 29% ± 24. For the same compound, the “restoring of normal proliferation by addition of IL-2” value in [10] (peptide still present throughout the whole cultivation period (not washed off)) is on record as “ineffective”. The “IL-2 release of purified T-cells” value in [11] is listed as “significantly decreased”. In [12], the “IFN-γ concentration compared to control” value is 21% ± 13. The “IFN-γ level compared to control” value in data set [12] (36 h post stimulation, intracellular cytokine flow cytometry) is “no effect”.
“[T8K]: single point-mutated lysine analogue of kalata B1, position 8 (GLPVCGEKCVGGTCNTPGCTCSWPVCTRN; ends and bridges not checked; cysteine pairing not given here; UniProt P56254 89-117, looked up, variant T8K)”: the “IC50 (µM) ± SD, inhibition of lymphocyte (PBMC) proliferation” value in data set [7] (CFSE flow cytometry, day three post stimulation, cyclotides 1.8-14 µM, non-linear regression (fixed slope), mean ± SD, a: n=7, b: n=4, c: n=3) was “not active (n.a.)^b”. Further, in data set [7], the immunosuppressive activity result is given as “lost their immunosuppressive activity”. Further, in [8], the “suppression of the proliferation of T-cells” value (“suppression” below) was “did not suppress”.
As to “[V10A]: single point-mutated alanine analogue of kalata B1, position 10 (cyclo(GLPVCGETCAGGTCNTPGCTCSWPVCTRN); disulfide 14-26, 5-19, 9-21; ends not checked; UniProt P56254 89-117, looked up, variant V10A)”, the immunosuppressive activity entry in [7] is given as “lost their immunosuppressive activity”. The “suppression” value in data set [8] was “did not suppress”.
For cyclosporin A [CsA, reference compound], in data set [2], the “inhibition or delay of PMA/ionomycin-triggered Ca2+-release after pretreatment” value is recorded as “Neither cyclotides nor CsA induced any inhibition or a delay” and the “direct change in Ca2+-signaling” value was “did not induce any change”. In data set [4] (24 h), the “IL-2 surface receptor CD25 expression compared to stimulated lymphocytes (ctrl, 100%)” value is on record as 76% ± 11. Further, the “IL-2 surface receptor CD25 expression compared to stimulated lymphocytes (ctrl, 100%)” value in data set [4] (36 h) is 62% ± 7.3. Further, the “level of il-2 mRNA compared to control” value in [5] is “clearly decreased”. Also, in data set [9], the “cells containing degranulation marker LAMP-1 as compared to control” value was 42% ± 21.
Turning to “[V10K]: single point-mutated lysine analogue of kalata B1, position 10; 'inactive' mutant (GLPVCGETCKGGTCNTPGCTCSWPVCTRN; ends and bridges not checked; cysteine pairing not given here; UniProt P56254 89-117, looked up, variant V10K)”, in [2], the “inhibition or delay of PMA/ionomycin-triggered Ca2+-release after pretreatment” value is “Neither cyclotides nor CsA induced any inhibition or a delay” and the “direct change in Ca2+-signaling” value is reported as “did not induce any change”. Also, in data set [3], the “IL-2 release of T-lymphocytes compared to control cells” value is listed as “no effect”. The “IL-2 receptor surface level” value in data set [4] (time not given) is “unaffected”. Further, in data set [6], the “TNF-α production compared to control” value was “did not affect”. Besides, the immunosuppressive activity result in data set [7] is listed as “lost their immunosuppressive activity”. Also, the “suppression” value in data set [8] was “did not suppress”. Moreover, in data set [9], the “cells containing degranulation marker LAMP-1 as compared to control” value is listed as “no influence”. In [10], the “proliferation compared to control, pretreated and washed cells with exogenous IL-2” value was “did not have any effect”; the “proliferation compared to control cells, pretreated and washed cells without exogenous IL-2” value is listed as “no effect”. The “IFN-γ concentration compared to control” value in data set [12] was “not affected”.
